System: Male MSH6 knockout rats (Msh6^1Hubr)
Experiment: ENU-induced germ line mutation discovery by resequencing 768 amplicons in F1 progeny
Format: in vivo, rat
Experimental: All experiments were approved by the Animal Care Committee of the Royal Dutch Academy of Science according to the Dutch legal ethical guidelines. Experiments were designed to minimize the number of required animals and their suffering. Male MSH6 knockout rats (Msh6^1Hubr) of 12 weeks of age were given three weekly intraperitoneal injections of 25, 30 and 35 mg/kg bodyweight ENU. Preparation of ENU (Isopac; Sigma) was done as decribed (for detailed description, see (Smits et al. (2006) Pharmacogenet Genomics 16, 159-69) After the treatment the injected males were monitored for fertility by breeding with one or two females. Pups from these early matings were counted, but not analyzed. Ten weeks after the last injection, fertile males of the highest-dosed fertile group were kept on a weekly breeding scheme with two females to produce F1 progeny for mutational analysis. Animals were housed under standard conditions in groups of two to three per cage per gender under controlled experimental conditions (12-h light/dark cycle, 21±1°C, 60% relative humidity, food and water ad libitum).
At two weeks of age F1 progeny were uniquely tagged by fetching ear clips. Ear clips were lysed for at least 2 hours at 55°C and 1400 rpm in a Thermomixer comfort (Eppendorf) in 400 µl lysisbuffer (100 mM Tris (pH 8.5), 200 mM NaCl, 0.2% SDS, 5 mM EDTA and 100 µg/ml of freshly added Proteinase K) followed by phenol/chloroform (1:1, vol/vol) extraction. The DNA was precipitated by adding 300 µl isopropanol, mixing and centrifuging for 20 min, at 21,000 g at 4°C. The supernatant was discarded and pellets were washed with 70% ethanol and dissolved in 500 µl MQ.
768 pre-selected amplicons were amplified using a nested PCR setup. The first PCR was carried out using a touchdown thermocycling program (94°C for 60 sec; 15 cycles of 92°C for 30 sec, 65°C for 30 sec with a decrement of 0.6°C per cycle, 72°C for 60 sec; followed by 30 cycles of 92°C for 30 sec, 58°C for 30 sec and 72°C for 60 sec; 72°C for 180 sec; GeneAmp9700, Applied Biosystems). The PCR reaction contained ±100 ng DNA, 0.2 µM of each forward primer and 0.2 µM of each reverse primer, 400 µM of each dNTP, 25 mM tricine, 7.0% glycerol (w/v), 1.6% dimethyl sulfoxide (DMSO) (w/v), 2 mM MgCl2, 85 mM ammonium acetate pH 8.7 and 0.2 U Taq Polymerase in a total volume of 5 µl. After thermocycling, the PCR1 reactions were diluted with 20 µl H2O and 1 µl was used as template for the second round of PCR. The second PCR was done using a standard thermocycling program (94°C for 60 sec; 35 cycles of 92°C for 20 sec, 58°C for 30 sec and 72°C for 60 sec; 72°C for 180 sec; GeneAmp9700, Applied Biosystems). PCR2 mixes contained 1 µl diluted PCR1 template, 0.1 µM forward primer, 0.1 µM reverse primer, 100 µM of each dNTP, 25 mM tricine, 7.0% glycerol (w/v), 1.6% DMSO (w/v), 2 mM MgCl2, 85 mM ammonium acetate pH 8.7 and 0.1 U Taq Polymerase in a total volume of 5 µl. Several samples of each plate were tested on a 1% agarose gel containing ethidium bromide for the presence of the proper PCR fragment. PCR2 products were diluted with 20 µl H2O and 1 µl was directly used as a template for the sequencing reactions. Sequencing reactions contained 0.1 µl BigDye (v3.1; Applied Biosystems), 1.9 µl BigDye Dilution Buffer (Applied Biosystems) and 0.4 µM of the forward primers used for the PCR2 reaction in a total volume of 5 µl. The thermocycling program that was recommended by the manufacturer was used for the sequence reactions (40 cycles of 94°C for 10 sec, 50°C for 5 sec and 60°C for 120 sec). Sequencing products were purified by ethanol precipitation in the presence of 40 mM sodium-acetate and analyzed on a 96-capillary 3730XL DNA analyzer (Applied Biosystems), using the standard RapidSeq protocol on 36 cm array. Sequences were analyzed for the presence of heterozygous mutations using PolyPhred (Nickerson et al. (1997) Nucleic Acids Res. 25, 2745-51) and in-house developed software. […]

[1] = 3 x 30 mg/kg bodyweight ENU, animals born 14 - 16 weeks after the ENU injection
[2] = 94 coding mutations, all MSH6^-/- dose groups
[3] = ENU mutation spectrum, MSH6 deficient compared to proficient background
[4] = MSH6^-/- 3 x 25 mg/kg ENU, 16 pups, 3.57 x 10^6 bases screened
[5] = MSH6^-/- 3 x 30 mg/kg ENU, 291 pups, 69.66 x 10^6 bases screened
[6] = MSH6^-/- 3 x 35 mg/kg ENU, 3 pups, 0.72 x 106 bases screened
[7] = MSH6^-/- Total of the three dose groups

## CCN(N=O)C(N)=O [ENU, N-ethyl-N-nitrosourea]
3 x 30 mg/kg bodyweight ENU, F1 born 14 - 16 weeks after last injection
  Mutation Frequencies: 1.88 x 10^-6
3 x 30 mg/kg bodyweight ENU, F1 born 14 - 16 weeks after last injection, 59 pups, 14.92 x 10^6 bases screened
  # Mutations: 28
3 x 30 mg/kg bodyweight ENU, F1 born 17 - 19 weeks after last injection
  Mutation Frequencies: 1.65 x 10^-6
3 x 30 mg/kg bodyweight ENU, F1 born 17 - 19 weeks after last injection, 62 pups, 13.30 x 106 bases screened
  # Mutations: 22
3 x 30 mg/kg bodyweight ENU, F1 born 20 - 22 weeks after last injection
  Mutation Frequencies: 1.24 x 10^-6
3 x 30 mg/kg bodyweight ENU, F1 born 20 - 22 weeks after last injection, 67 pups, 15.34 x 10^6 bases screened
  # Mutations: 19
3 x 30 mg/kg bodyweight ENU, F1 born 23 - 25 weeks after last injection
  Mutation Frequencies: 9.92 x 10^-7
3 x 30 mg/kg bodyweight ENU, F1 born 23 - 25 weeks after last injection, 64 pups, 16.14 x 10^6 bases screened
  # Mutations: 16
3 x 30 mg/kg bodyweight ENU, F1 born 23 weeks after the last injection or later
  mutation frequency: approximately 1.0 x 10^-6 per base pair
3 x 30 mg/kg bodyweight ENU, F1 born 26 - 29 weeks after last injection
  Mutation Frequencies: 1.10 x 10^-6
3 x 30 mg/kg bodyweight ENU, F1 born 26 - 29 weeks after last injection, 39 pups, 9.97 x 10^6 bases screened
  # Mutations: 11
[1]
  mutation frequency: 1.88 x 10^-6 per base pair
  mutation rate (1 mutation every ... base pairs): 5.3 x 10^5 base pairs
3 x 30 mg/kg bodyweight ENU, animals born 17 - 19 weeks after the last ENU injection
  mutation frequency: 1.65 x 10^-6 per base pair
3 x 30 mg/kg bodyweight ENU, animals born 20 - 22 weeks after the last ENU injection
  mutation frequency: 1.24 x 10^-6 per base pair
[2]
  missense mutations, share of coding mutations: ~74%
  nonsense mutations, share of coding mutations: ~4%
  silent mutations, share of coding mutations: ~21%
[3]
  percentage of A:T to G:C transitions: significantly decreased
  percentage of G:C to A:T transitions: significantly increased
  percentages of transversions: No significant change
MSH6^-/- 3 x 25 mg/kg ENU
  # Mutations - non-coding: 0
  # Mutations - silent: 1
[4]
  # Mutations - missense: 4
  # Mutations - nonsense: 0
  # Mutations - total: 5
MSH6^-/- 3 x 25 mg/kg ENU, F1 progeny
  Mutation Frequencies: 1.40 x 10^-6
MSH6^-/- 3 x 30 mg/kg ENU
  # Mutations - non-coding: 8
  # Mutations - silent: 19
[5]
  # Mutations - missense: 65
  # Mutations - nonsense: 4
  # Mutations - total: 96
MSH6^-/- 3 x 30 mg/kg ENU, F1 progeny
  Mutation Frequencies: 1.38 x 10^-6
MSH6^-/- 3 x 35 mg/kg ENU
  # Mutations - non-coding: 0
  # Mutations - silent: 0
[6]
  # Mutations - missense: 1
  # Mutations - nonsense: 0
MSH6^-/- 3 x 35 mg/kg ENU, F1 progeny
  Mutation Frequencies: 1.38 x 10^-6
[7]
  # Mutations - missense: 70
  # Mutations - non-coding: 8
  # Mutations - silent: 20
MSH6^-/- Total of the three dose groups, 310 pups, 73,95 x 10^6 bases screened
  # Mutations - total: 102
MSH6 deficient 3 x 30 mg/kg ENU versus control 3 x 40 mg/kg
  increase of mutation rate compared to control animals: 1.7 x
MSH6 deficient, 3 x 30 mg/kg bodyweight ENU, 291 F1 progeny, almost 70 Mb
  mutation rate (1 mutation every ... base pairs): 7.26 x 10^5 base pairs
Of the 102 mutations found, all MSH6^-/- dose groups
  mutations in coding regions: 94
